# Values quoted from earlier work as cited in patent US5420288A, “Electroluminescent device comprising oxadiazole compounds luminescent material, oxadiazole compounds for the device, and method of producing oxadiazole compounds” (Ricoh Company, Ltd., priority 1992, dated 1995).
# Conditions: conventional materials, background
compound,measurement,value
"CC(C)(C)c1ccc(-c2nnc(-c3ccc(-c4ccccc4)cc3)o2)cc1 [2-(4-tert-butylphenyl)-5-(p-biphenyl)-1,3,4-oxadiazole]",film-forming properties / crystallization / stability,easily crystallized and lacks in the stability
